Laboratory results reported in article PMC10239507, “Development of allosteric and selective CDK2 inhibitors for contraception with negative cooperativity to cyclin binding” (Nature Communications, 2023).
Entries after “also recorded” stand apart in the source; their conditions may differ.

How the values were obtained:
CDK/cyclin complexes = assay: Commercial CDK/cyclin kinase activity panel (Reaction Biology); type: biochemical; conditions: concentration well above its KD
human CDK2 (1-298) = human CDK2 (1-298) (Homo sapiens, UniProt P24941); assay: Isothermal titration calorimetry (ITC)
[1] = target: T1, CDK2 (C118A C177S A93C R157C) (Homo sapiens, UniProt P24941, A93C/C118A/C177S/R157C); assay: Intramolecular FRET assay of CDK2 activation loop position; type: binding
T1 construct: made in house; cyclin A: BL21(DE3)pLysS

GST-tagged CDK2 = target: T2, GST-tagged CDK2 (Homo sapiens, UniProt P24941); assay: Surface plasmon resonance (SPR), CDK2; type: binding
T2 construct: The gene encoding human CDK2 (1-298) was custom-synthesized; made in house; host or cells: E. coli BL21 DE3 RIPL

fold slower dissociation rate than the allosteric inhibitors (GST-tagged CDK2) [fold]	Molecule	inhibition of CDK/cyclin complexes (CDK/cyclin complexes)	Kd (human CDK2 (1-298)) [nM]	T∆S (human CDK2 (1-298); ITC, 25 °C) [kcal/mol]	n (binding stoichiometry) (human CDK2 (1-298); ITC, 25 °C)	∆H (human CDK2 (1-298); ITC, 25 °C) [kcal/mol]	Kd [1] [nM]
	O=C(O)c1cc(C(F)(F)F)ccc1NCCc1c[nH]c2cc(Cl)ccc12 [Compound 4, 2-((2-(6-Chloro-1H-indol-3-yl)ethyl)amino)−5-(trifluoromethyl)benzoic Acid]	poorly inhibits; also recorded: does not substantially inhibit any CDK/cyclin complex	31	4.8	1.39	-5.5	280
≥ 10	cyclin: Bovine cyclin A (171-432 with a C-terminal 6His tag)						
